Assay results as given in ChEMBL document CHEMBL1154010, “Aziridine alkaloids as potential therapeutic agents” (Eur J Med Chem, 2009).
In brackets after ≈: the same amount, converted by molar mass.

Legend:
Mus musculus = test: Toxicity in ip dosed ddY mouse bearing mouse S180 cells; format: organism-based, CCRF S-180; details: in vivo
CCRF S-180 = test: Antitumor activity against mouse S180 cells implanted in ip dosed ddY mouse assessed as tumor volume after 7 days; format: functional
L1210 = test: Cytotoxicity against mouse L1210 cells; format: functional, cell-based
HL-60 = test: Cytotoxicity against human HL60 cells; format: functional, cell-based
KB = test: Cytotoxicity against human KB cells; format: functional, cell-based
[1] = Antitumor activity against mouse mammary cancer cell implanted in C3H/An mouse assessed as inhibition of tumor growth at 0.5 mg/day for 14 days; format: functional, Cancer cell lines
[2] = Inhibition of sunflower S-adenosyl-L-methionine-C-24 methyltransferase; design: species or system Helianthus annuus
HCT-116 = test: Cytotoxicity against human HCT116 cells; format: functional, cell-based
[3] = Toxicity in rat bearing M1 cells assessed as mortality at 40% LD50 per day; format: organism-based; details: m1, 40 % LD50 per day, read-out: Activity

| SMILES | LD50 (Mus musculus) [µg/mL] | ED50 (CCRF S-180) [µg/mL] | also measured |
| --- | --- | --- | --- |
| COC1=C(C)C(=O)C2=C(C1=O)[C@@H](COC(N)=O)[C@@]1(OC)[C@@H]3[C@H](CN21)N3C (stereo not given in full) [N-METHYL-MITOMYCIN A] | 5 | 1.3 (≈ 3.58 µM) |  |
| C=C1C2=C(C(=O)C(C)=C(N)C2=O)N2C[C@H]3[C@H](N3C)[C@]12O (stereo not given in full) [MITOMYCIN Z] | 210 | 82 (≈ 300 µM) |  |
| NCCCNCCCCN1CC1 |  |  | IC50 (L1210): 310 nM; IC50 (HL-60): 300 nM |
| C/C(=C\c1csc(C)n1)[C@@H]1C[C@H]2[C@@H](CCC[C@H](C)[C@H](O)[C@@H](C)C(=O)C(C)(C)[C@@H](O)CC(=O)O1)N2CCO (stereo not given in full) |  |  | IC50 (KB): 4.3 nM |
| CC(=O)O[C@H]1CC[C@@]2(C)C(=CC[C@@H]3[C@@H]2CC[C@]2(C)C(=O)C(CN4CC4)C[C@@H]32)C1 (stereo not given in full) |  |  | inhibition (INH) [1]: 32% |
| C=C1C2=C(C(=O)C(C)=C(OC)C2=O)N2C[C@H]3[C@H](N3C)[C@]12O (stereo not given in full) [MITOMYCIN H] | 12 | 6.8 (≈ 23.6 µM) |  |
| C[C@H](CCC1NC1(C)C)[C@H]1CC[C@@]2(C)C3=C(CC[C@]12C)[C@@]1(C)CC[C@H](O)C(C)(C)[C@@H]1CC3 (mixture of isomers) |  |  | Ki [2]: 3 nM |
| COC(=O)[C@@H]1N=C1/C=C\CCCCCCCCC/C=C(/Cl)Br |  |  | IC50 (HCT-116): 13600 nM |
| CC1SCCN1P(=O)(N1CC1)N1CC1 (stereo not given) [MARCOPHAN] |  |  | mortality [3]: 25% |
| COC1=C(C)C(=O)C2=C(C1=O)[C@H](COC(N)=O)[C@@]1(OC)[C@@H]3[C@H](CN21)N3C (stereo not given in full) [MITOMYCIN J] | 9 | 10 (≈ 27.5 µM) |  |
